Reference: patent EP0173262A2, “Use of 1,4-naphthoquinone derivatives in a low concentration as immunostimulating agents” (Carnivora-Deutschland GmbH, priority 1984, dated 1986)

Assays:
[1] = tested on: polymorphkernigen Leucocyten (PMNL); test: Chemiluminescence measurement (modified after Allen), zymosan-stimulated PMNL; type: cell-based; settings: concentration range 10^-1 bis 10^-2 mg/ml
Text: (§1) Die vorliegende Erfindung beruht auf dem erstmaligen Nachweis einer Immunstimulation durch 1,4-Naphthochinon-Derivate der angegebenen Art. Die Immunstimulation läßt sich experimentell in vitro und in vivo klar nachweisen. Als geeignete immunologische Testverfahren dienen der Carbon Clearance-Test (CCT)-RES-Funktion (Biozzi, G. Benacerraf, B. und Halpern, B.N., Br. J. Exp.Pathol. 34, 441 (1953)); der Granulocyten-Test gemäß Brandt, L., Scand.J.Haematol. Suppl. 2 (1967), der vorzugsweise in modifizierter Form angewandt wird; sowie eine Chemoluminenszenz-Messung nach Allen (Allen, R.C. in "Bioluminescence and Chemiluminescence; Basic Chemistry and Analytical Applications", Eds: De Luca und Mc Elroy, S. 63-73, Academie Press, New York, 1981).
• a) PBS-Puffer ohne Ca^2+ und Mg^2+ (steril) (Fa. Biochrom, Berlin) • b) Veronal-gepufferte Kochsalzlösung mit Ca^2+, Mg^2+, Glucose und Albumin Stammlösung: 8.3 g NaCl, 1.02 g Natrium, 5,5-Diäthylbarbiturat (Veronal), 102 mg MgCl2, 22 mgCaCl2 in 150 ml H2O (bidest.) lösen, + 3.5 ml 1M IICL auf 200 ml mit H20 (bidest.) auffüllen. Von dieser Stammlösung werden 40 ml mit 140 ml H20 (bidest.) verdünnt, mit 1M HCL auf pH 7.0 eingestellt und mit II20 (bidest.) auf 200 ml auf gefüllt. […]

[2] = tested on: Granulozyten; test: Granulocyte test (modified after Brandt), phagocytosis of yeast particles; type: cell-based; settings: concentration range 10^-1 bis 10^-2 mg/ml
Text: as §1
In 20 ml Spritze 1 Tropfen Heparin (Thrombophob) und ca. 10 ml Blut abnehmen und mit 1,5% Dextran T 500 im Verhältnis 2:1 mischen. Kanüle auf der Spritz umbiegen und 30 Minuten bei 25°C absetzen lassen (ca. 2-3 ml Blut für Eigenserum abnehmen).
Den Überstand (Leukozytensuspension) in steriles Röhrchen überspritzen; 7 Minuten bei 500 U. zentrifugieren.
Überstand weggießen, Bodensatz (Leukozyten) 2 mal mit RPM I-Puffer bei 500 U. waschen.
Granulozyten mit ca. 5 ml Puffer auffüllen und Zellen auf 5 x 10 x 10^6 einstellen. […] Zellsuspension in 0,475 ml 3 % iger Essigsäure mischen. In Neubauerkammer 4 Quadrate auszählen (100 Zellen/Kammer). […]

Structure (SMILES): CC1=CC(=O)c2c(O)cccc2C1=O [Plumbagin]
- effect at higher concentrations [1]: Phagocytosehemmung sowie eine Immunsuppression bzw. Cytotoxicität
- effect on phagocytosis at higher concentrations [2]: ausgeprägte Phagocytosehemmung
